“And” between values parts separate entries of the source, which are not always exact repeats. Equal values may be shown once.
Key:
Assay type in all cases: in vivo
[1] = test system: Sodium Urate Crystal Induced Peritonitis in Mice; assay: Sodium urate crystal (MSU) induced peritonitis in mice (PMN migration)
Procedure: Such crystals are the primary cause of the inflammation associated with acute gouty arthritis.
Male out-bred Swiss albino mice were purchased from Bantin and Kingman (T.O. strain; Hull, Humberside) and maintained on a standard chow pellet diet with tap water ad libitum and a 12:00 h light/dark cycle. All animals were housed for at least 3 days prior to experimentation to allow body weight to reach ˜30 g on the day of the experiment. For this particular experiment body weight was 30±1 (n=32).
Compound 1 was stored at room temperature in the dark. […] Mice received 3 mg mono sodium urate crystals (MSU) given intra-peritoneally at time 0.
Time +6 h: Peritoneal cavities were washed 6 h later with 3 mL of PBS containing 3 mM EDTA, and the number of migrated leukocytes determined, by taking an aliquot (100 μL) of the lavage fluid and diluting 1:10 in Turk's solution (0.01% crystal violet in 3% acetic acid). The samples were then vortexed and 10 μL of the stained cell solution were placed in a Neubauer hematocytometer. Differential cell counts were performed using a light microscope (Olympus B061). In view of their chromatic characteristics and their nucleus and cytoplasm appearance, cells polymorphonuclear cells (PMN, >95% neutrophils) could be easily differentiated
Experimental groups are described below:
Data are shown for single mice, and also shown as mean ±SE of (n) mice per group. Statistical differences were determined by Student's t test. A P value <0.05 was taken as significant.
PMN influx into the peritoneal cavity was measured at the 6 h time-point after collection of the lavage fluids and specific staining as described in the experimental section.

[2] = test system: Zymosan Induced Peritonitis in Mice; assay: Zymosan induced peritonitis in mice (PMN influx into peritoneal cavity); details: for effect on PMN influx (in words): Imetit, thioperamide 5 mg/kg, s.c.; for PMN (10^6 per mouse), mean: group mean; for PMN (10^6 per mouse), mean / PMN (10^6 per mouse), single mice: s.c. at -15 min and +2 h (Compound 1 10 mg/kg; Imetit, Thioperamide 5 mg/kg), 1 mg zymosan A i.p.; for PMN (10^6 per mouse), single mice: lavage at 4 h
Procedure: This is commonly used to induce peritonitis in mice and appears to act in a mast cell dependent manner. Male out-bred Swiss albino mice were purchased from Bantin and Kingman (T.O. strain; Hull, Humberside) and maintained on a standard chow pellet diet with tap water ad libitum and a 12:00 h light /dark cycle. All animals were housed for at least 3 days prior to experimentation to allow body weight to reach ˜30 g on the day of the experiment. […] Animals were briefly (30-60 s) anesthetized with halothane for all s.c. and i.p. treatments described below. Drugs were stored at room temperature, in the dark. On the day of the experiment, drugs were dissolved in sterile PBS as depicted below, and generously vortexed. […] Time −15 min: Compounds or PBS administered s.c. at the reported doses. Time 0: At time 0, mice received 1 mg zymosan A (Sigma) i.p. Time +2 h: Compounds or PBS administered s.c. at the reported doses. […] Peritoneal cavities were washed 4 h later with 3 mL of PBS containing 3 mM EDTA, and the number of migrated leukocytes determined, by taking an aliquot (100 μL) of the lavage fluid and diluting 1:10 in Turk's solution (0.01% crystal violet in 3% acetic acid). The samples were then vortexed and 10 μL of the stained cell solution were placed in a Neubauer haemocytometer. Differential cell counts were performed using a light microscope (Olympus B061). […] Statistical differences were determined by Anova followed by Bonferroni's post-hoc test.

[3] = test system: Croton Oil Induced Topical Inflammation in Mice; assay: Croton oil induced topical inflammation in mice (ear swelling); details: for Difference in ear Thickness, Mean: group mean, s.c. x3 (Compound 1 10 mg/kg; Indomethacin 30 mg/kg), 6 h after croton oil

Compound	effect on PMN migration (in words) ([1]; 10 mg/kg s.c., 6 h)	PMN (10^6 per mouse), mean ([1]; group mean, 10 mg/kg s.c. at -15 min, +2 h and +4 h, 3 mg MSU crystals i.p., 6 h time-point)	PMN (10^6 per mouse), single mice ([1]; single mice, 10 mg/kg s.c. at -15 min, +2 h and +4 h, 3 mg MSU crystals i.p., 6 h time-point, 10 mg/kg)	effect on PMN influx (in words) ([2]; Compound 1 10 mg/kg, 4 h)	PMN (10^6 per mouse), mean ([2]; 4 h)	PMN (10^6 per mouse), single mice [2]	effect on ear swelling (in words) ([3]; 10 mg/kg x 3 s.c.)	inhibition at 10 mg/kg ([3]; Mus musculus, sc, 6 h, read-out: % inhib (ear swelling)) [%]	Difference in ear Thickness, Mean [3] [× 0.01 mm]	Difference in ear Thickness, single mice ([3]; single mice, s.c. 30 min before, 2 and 4 h after croton oil (Compound 1 10 mg/kg; Indomethacin 30 mg/kg), measured 6 h after croton oil)	% inhib (PMN influx) ([2]; vs PBS group, Compound 1 10 mg/kg, Thioperamide 5 mg/kg s.c., 4 h)
CN1CCN(C(=O)c2cc3cc(Cl)ccc3[nH]2)CC1 [Compound 1, (5-Chloro-1H-indol-2-yl)-(4-methyl-piperazin-1-yl)-methanone]	significantly reduced PMN migration	6.8 10^6 per mouse	7.8 10^6 per mouse (2×) and 4.5 10^6 per mouse and 3.0 10^6 per mouse and 8.1 10^6 per mouse and 9.3 10^6 per mouse and 6.6 10^6 per mouse and 7.2 10^6 per mouse	significantly reduced PMN influx	6.6 10^6 per mouse	9.9 10^6 per mouse and 3.6 10^6 per mouse and 9.3 10^6 per mouse and 3.3 10^6 per mouse and 8.1 10^6 per mouse and 5.1 10^6 per mouse and 6.9 10^6 per mouse	significantly reduced the swelling	28	12.0	12 × 0.01 mm and 10 × 0.01 mm and 13 × 0.01 mm and 9 × 0.01 mm and 16 × 0.01 mm	–
COc1ccc2c(c1)c(CC(=O)O)c(C)n2C(=O)c1ccc(Cl)cc1 [Indomethacin, reference compound]	–	–	–	–	–	–	–	–	10.0	–	–
N=C(N)SCCc1cnc[nH]1 [Imetit]	–	–	–	inactive	17.3 10^6 per mouse	–	–	–	–	–	–
S=C(NC1CCCCC1)N1CCC(c2cnc[nH]2)CC1 [Thioperamide]	–	–	–	significant inhibitory effect	9.3 10^6 per mouse	9.3 10^6 per mouse and 16.5 10^6 per mouse and 7.2 10^6 per mouse and 10.8 10^6 per mouse and 5.4 10^6 per mouse and 9.9 10^6 per mouse and 6.9 10^6 per mouse and 8.1 10^6 per mouse	–	–	–	–	(−46%)
